Measurements from ChEMBL document CHEMBL4507268 (2021).

Experiments:
Conditions in all cases: Compound concentration 1.0 uM
[1] = target: T1, G protein-coupled receptor kinase 3 (Homo sapiens) (UniProt P35626)
T1 sequence (whole entry): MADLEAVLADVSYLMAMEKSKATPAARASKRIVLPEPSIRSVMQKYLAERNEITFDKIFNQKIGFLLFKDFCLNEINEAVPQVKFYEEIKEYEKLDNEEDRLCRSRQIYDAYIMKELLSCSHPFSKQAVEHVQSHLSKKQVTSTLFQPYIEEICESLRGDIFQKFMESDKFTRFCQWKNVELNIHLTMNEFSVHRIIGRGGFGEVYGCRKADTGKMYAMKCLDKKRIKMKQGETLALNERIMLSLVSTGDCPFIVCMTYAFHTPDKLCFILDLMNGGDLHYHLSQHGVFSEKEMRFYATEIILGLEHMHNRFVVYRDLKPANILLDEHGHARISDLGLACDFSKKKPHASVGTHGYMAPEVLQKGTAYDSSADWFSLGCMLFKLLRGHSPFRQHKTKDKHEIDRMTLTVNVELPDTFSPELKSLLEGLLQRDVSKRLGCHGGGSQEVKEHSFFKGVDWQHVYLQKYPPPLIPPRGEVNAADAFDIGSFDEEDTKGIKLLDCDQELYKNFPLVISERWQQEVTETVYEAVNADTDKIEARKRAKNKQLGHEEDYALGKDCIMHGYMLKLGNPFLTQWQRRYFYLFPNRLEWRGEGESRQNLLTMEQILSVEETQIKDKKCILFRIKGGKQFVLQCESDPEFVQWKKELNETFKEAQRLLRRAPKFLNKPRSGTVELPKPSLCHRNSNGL

[2] = target: T2, Ephrin type-A receptor 8 (Homo sapiens) (UniProt P29322)
T2 sequence (whole entry): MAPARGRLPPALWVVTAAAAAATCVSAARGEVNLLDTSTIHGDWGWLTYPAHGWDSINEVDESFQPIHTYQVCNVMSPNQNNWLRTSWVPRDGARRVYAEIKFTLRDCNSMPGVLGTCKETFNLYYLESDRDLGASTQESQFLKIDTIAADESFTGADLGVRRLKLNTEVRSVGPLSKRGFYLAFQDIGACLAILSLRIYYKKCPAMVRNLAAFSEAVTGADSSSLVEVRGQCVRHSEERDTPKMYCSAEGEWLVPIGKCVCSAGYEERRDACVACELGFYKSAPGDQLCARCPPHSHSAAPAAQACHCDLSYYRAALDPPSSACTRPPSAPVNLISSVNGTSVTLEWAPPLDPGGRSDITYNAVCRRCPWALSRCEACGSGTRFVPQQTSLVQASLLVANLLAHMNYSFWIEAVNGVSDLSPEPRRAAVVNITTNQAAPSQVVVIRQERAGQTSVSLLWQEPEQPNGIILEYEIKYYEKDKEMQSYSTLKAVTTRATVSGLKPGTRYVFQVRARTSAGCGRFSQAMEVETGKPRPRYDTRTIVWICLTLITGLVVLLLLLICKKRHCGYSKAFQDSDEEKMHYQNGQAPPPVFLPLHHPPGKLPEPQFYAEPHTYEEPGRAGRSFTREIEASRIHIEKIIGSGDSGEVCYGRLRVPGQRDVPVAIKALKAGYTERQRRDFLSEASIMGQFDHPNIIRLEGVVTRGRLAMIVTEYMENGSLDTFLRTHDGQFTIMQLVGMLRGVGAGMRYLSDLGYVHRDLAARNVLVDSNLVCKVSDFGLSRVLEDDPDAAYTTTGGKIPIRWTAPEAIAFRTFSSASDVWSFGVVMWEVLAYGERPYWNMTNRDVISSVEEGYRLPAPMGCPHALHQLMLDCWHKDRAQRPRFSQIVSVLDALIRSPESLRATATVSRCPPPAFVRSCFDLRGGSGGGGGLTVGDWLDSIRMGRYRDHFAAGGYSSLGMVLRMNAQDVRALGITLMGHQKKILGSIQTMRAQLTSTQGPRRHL

[3] = target: Calcium/calmodulin-dependent protein kinase type II subunit delta (Homo sapiens) (UniProt Q13557)
Calcium/calmodulin-dependent protein kinase type II subunit delta (Homo sapiens), sequence (Q13557 whole entry): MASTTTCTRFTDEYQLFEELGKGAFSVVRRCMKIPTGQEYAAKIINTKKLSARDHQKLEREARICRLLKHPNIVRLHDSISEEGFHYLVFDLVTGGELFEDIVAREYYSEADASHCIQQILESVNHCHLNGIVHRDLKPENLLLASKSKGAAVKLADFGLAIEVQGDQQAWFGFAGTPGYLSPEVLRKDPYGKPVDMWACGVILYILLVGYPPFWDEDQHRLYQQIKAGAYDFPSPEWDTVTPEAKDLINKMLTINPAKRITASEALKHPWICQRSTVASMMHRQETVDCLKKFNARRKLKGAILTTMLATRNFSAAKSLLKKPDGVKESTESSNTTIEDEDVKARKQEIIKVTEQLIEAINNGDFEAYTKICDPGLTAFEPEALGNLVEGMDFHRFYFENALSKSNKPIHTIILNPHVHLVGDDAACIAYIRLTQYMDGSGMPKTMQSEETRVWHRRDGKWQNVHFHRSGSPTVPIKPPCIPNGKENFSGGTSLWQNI

[4] = target: T3, Aurora kinase C (Homo sapiens) (UniProt Q9UQB9)
T3 sequence (whole entry): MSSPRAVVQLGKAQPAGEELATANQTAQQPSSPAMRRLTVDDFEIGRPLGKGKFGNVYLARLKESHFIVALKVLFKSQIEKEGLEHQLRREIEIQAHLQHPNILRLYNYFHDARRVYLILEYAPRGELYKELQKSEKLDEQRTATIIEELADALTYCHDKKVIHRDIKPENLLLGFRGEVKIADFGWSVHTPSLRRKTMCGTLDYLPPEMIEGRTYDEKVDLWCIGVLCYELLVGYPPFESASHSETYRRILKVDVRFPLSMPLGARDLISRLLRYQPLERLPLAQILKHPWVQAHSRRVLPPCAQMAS

[5] = target: Ephrin type-A receptor 2 (Homo sapiens) (UniProt P29317)
Ephrin type-A receptor 2 (Homo sapiens), sequence (P29317 whole entry): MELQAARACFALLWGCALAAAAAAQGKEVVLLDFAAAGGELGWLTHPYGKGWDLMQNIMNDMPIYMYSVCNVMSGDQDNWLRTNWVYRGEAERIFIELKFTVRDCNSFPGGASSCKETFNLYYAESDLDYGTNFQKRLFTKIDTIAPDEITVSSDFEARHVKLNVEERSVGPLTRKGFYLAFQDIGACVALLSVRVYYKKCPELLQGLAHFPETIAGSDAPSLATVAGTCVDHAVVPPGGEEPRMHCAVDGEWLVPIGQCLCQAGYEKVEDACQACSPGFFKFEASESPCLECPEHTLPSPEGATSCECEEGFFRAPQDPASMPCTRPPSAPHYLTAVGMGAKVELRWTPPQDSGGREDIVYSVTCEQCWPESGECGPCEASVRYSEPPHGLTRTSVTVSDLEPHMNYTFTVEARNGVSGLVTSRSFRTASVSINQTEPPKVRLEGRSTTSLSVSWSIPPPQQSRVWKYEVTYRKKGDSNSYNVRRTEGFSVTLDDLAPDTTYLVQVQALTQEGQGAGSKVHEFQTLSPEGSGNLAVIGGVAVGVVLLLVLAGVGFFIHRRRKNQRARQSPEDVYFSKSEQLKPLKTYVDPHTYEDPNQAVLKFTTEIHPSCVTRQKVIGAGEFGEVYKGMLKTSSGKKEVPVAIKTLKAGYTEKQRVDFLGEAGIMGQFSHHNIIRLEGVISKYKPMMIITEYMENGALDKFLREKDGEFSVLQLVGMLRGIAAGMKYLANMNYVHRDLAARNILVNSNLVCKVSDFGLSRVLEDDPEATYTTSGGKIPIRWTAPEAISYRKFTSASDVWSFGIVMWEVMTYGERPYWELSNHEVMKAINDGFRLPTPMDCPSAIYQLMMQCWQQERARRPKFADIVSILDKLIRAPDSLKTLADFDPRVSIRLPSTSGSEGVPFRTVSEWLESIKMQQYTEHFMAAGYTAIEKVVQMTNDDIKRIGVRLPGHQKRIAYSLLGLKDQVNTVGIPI

[6] = target: Hepatocyte growth factor receptor (Homo sapiens) (UniProt P08581)
Hepatocyte growth factor receptor (Homo sapiens), sequence (P08581 whole entry): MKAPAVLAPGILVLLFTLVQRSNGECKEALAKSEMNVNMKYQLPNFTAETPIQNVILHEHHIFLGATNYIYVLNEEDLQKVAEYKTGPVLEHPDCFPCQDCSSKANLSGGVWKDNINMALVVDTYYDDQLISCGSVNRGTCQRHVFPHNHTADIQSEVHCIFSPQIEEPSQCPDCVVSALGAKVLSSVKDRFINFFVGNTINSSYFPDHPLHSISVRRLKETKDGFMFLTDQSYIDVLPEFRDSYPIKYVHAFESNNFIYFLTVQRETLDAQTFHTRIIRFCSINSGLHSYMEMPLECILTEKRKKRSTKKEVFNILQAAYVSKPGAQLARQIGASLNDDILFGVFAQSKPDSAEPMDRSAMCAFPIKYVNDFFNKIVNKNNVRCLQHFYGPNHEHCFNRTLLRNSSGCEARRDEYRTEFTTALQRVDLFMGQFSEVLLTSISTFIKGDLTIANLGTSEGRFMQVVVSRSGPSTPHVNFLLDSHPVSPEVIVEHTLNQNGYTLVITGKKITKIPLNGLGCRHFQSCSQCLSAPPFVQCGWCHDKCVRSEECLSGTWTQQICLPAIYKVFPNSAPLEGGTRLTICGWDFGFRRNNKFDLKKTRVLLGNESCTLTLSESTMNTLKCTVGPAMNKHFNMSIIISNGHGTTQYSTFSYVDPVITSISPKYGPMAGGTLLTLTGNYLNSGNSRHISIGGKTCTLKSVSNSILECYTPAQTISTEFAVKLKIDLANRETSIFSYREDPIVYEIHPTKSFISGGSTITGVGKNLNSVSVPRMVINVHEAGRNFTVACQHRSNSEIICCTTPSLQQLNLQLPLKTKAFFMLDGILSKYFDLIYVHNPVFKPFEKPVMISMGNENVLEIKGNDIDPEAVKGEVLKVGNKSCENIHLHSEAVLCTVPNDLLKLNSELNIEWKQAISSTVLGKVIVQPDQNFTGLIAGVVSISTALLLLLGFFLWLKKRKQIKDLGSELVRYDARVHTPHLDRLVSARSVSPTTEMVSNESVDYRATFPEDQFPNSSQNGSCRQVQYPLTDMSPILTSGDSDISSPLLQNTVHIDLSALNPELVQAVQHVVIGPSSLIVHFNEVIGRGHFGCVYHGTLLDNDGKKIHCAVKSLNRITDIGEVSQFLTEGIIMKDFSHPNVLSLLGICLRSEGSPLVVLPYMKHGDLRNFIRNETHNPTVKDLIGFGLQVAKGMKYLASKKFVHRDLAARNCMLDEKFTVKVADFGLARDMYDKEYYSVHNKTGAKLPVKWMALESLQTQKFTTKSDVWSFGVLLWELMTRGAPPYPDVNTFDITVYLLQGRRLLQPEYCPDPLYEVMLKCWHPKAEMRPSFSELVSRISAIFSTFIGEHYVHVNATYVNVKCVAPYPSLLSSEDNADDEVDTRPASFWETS

[7] = target: T4, Myosin light chain kinase (Homo sapiens) (UniProt Q32MK0)
T4 sequence (whole entry): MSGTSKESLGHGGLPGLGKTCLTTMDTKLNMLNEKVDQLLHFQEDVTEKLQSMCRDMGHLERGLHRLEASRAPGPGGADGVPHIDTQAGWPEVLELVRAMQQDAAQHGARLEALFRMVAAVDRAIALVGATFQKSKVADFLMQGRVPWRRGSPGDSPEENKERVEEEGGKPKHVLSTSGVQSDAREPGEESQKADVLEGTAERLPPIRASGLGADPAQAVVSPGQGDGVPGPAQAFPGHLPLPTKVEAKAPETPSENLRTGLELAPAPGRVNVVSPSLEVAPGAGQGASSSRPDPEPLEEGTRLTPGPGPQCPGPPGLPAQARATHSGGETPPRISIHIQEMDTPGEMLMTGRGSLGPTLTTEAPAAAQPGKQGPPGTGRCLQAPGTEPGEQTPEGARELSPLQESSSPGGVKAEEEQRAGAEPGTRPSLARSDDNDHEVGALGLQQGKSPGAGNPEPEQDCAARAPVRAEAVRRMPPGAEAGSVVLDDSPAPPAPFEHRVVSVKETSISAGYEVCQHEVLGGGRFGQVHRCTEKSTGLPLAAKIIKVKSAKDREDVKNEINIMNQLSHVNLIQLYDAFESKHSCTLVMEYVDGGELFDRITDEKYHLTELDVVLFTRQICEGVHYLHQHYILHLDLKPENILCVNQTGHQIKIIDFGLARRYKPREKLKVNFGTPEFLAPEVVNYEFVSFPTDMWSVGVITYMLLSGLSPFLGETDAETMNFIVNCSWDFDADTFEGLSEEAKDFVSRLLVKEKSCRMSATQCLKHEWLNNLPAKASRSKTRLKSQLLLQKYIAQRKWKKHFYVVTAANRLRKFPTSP

Measured: % residual kinase activity

CN1CCN(c2cnc3c(C4CCN(C(=O)c5ccc(OC(F)(F)F)cc5N)CC4)ncnc3c2)CC1 [BAY-885]
inactive: [1] 92% | [2] 104% | [3] 95% | [4] 95% | [5] 100% | [6] 93% | [7] 107%
